Values of other authors as cited in paper PMC8466373, “Plant-Derived and Dietary Hydroxybenzoic Acids—A Comprehensive Study of Structural, Anti-/Pro-Oxidant, Lipophilic, Antimicrobial, and Cytotoxic Activity in MDA-MB-231 and MCF-7 Cell Lines” (Nutrients, 2021).

System: A. niger
Conditions: concentration of 30 mg/mL; cited from earlier work

**Q.** For O=C(O)c1cccc(O)c1O [2,3-DHB, 2,3-Dihydroxybenzoic acid], which zone of inhibition is on record?
**A.** Its zone of inhibition is 22 mm.
